Test results: publication PMC5218480 (PLoS ONE, 2017)

Tested on: MV-4-11 cells
Test: Gene expression microarray analysis (Affymetrix PrimeView) and GSEA
Format: cell-based, human
Set-up: RFU PODN (11730768_x_at) / Fold change /veh PODN (11730768_x_at) / RFU LINC00158 (11744669_a_at) / Fold change /veh LINC00158 (11744669_a_at) / RFU DUSP10 (11751237_a_at) / Fold change /veh DUSP10 (11751237_a_at) / RFU ID3 (11757404_x_at) / Fold change /veh ID3 (11757404_x_at) / RFU PLEKHG5 (11737974_s_at) / Fold change /veh PLEKHG5 (11737974_s_at) / RFU LRRC4B (11730491_at) / Fold change /veh LRRC4B (11730491_at) / RFU GIMAP4 (11747438_a_at) / Fold change /veh GIMAP4 (11747438_a_at) / RFU KRT8 (11758183_x_at) / Fold change /veh KRT8 (11758183_x_at) / RFU CNN1 (11734310_a_at) / Fold change /veh CNN1 (11734310_a_at) / RFU VPS37D (11726825_at) / Fold change /veh VPS37D (11726825_at) / RFU C10orf10 (11716522_x_at) / Fold change /veh C10orf10 (11716522_x_at) / RFU KIR2DL2 /// KIR2DL4 /// KIR2DL5A /// KIR2DL5B /// KIR2DS1 /// KIR2DS2 /// KIR2DS3 /// KIR2DS4 /// KIR3DL3 /// KIR3DL3 /// KIR3DS1 (11738374_at) / Fold change /veh KIR2DL2 /// KIR2DL4 /// KIR2DL5A /// KIR2DL5B /// KIR2DS1 /// KIR2DS2 /// KIR2DS3 /// KIR2DS4 /// KIR3DL3 /// KIR3DL3 /// KIR3DS1 (11738374_at) / RFU C1QL1 (11718748_at) / Fold change /veh C1QL1 (11718748_at) / RFU TMPRSS4 (11747572_a_at) / Fold change /veh TMPRSS4 (11747572_a_at) / RFU HAMP (11756126_x_at) / Fold change /veh HAMP (11756126_x_at) / RFU RNFT2 (11725882_a_at) / Fold change /veh RNFT2 (11725882_a_at) / RFU NR4A2 (11747474_a_at) / Fold change /veh NR4A2 (11747474_a_at) / RFU ABCC12 (11746883_a_at) / Fold change /veh ABCC12 (11746883_a_at) / RFU TMEM136 (11760407_x_at) / Fold change /veh TMEM136 (11760407_x_at) / RFU CLDN22 /// WWC2 (11732394_at) / Fold change /veh CLDN22 /// WWC2 (11732394_at) / RFU HLA-DPB1 (11760878_x_at) / Fold change /veh HLA-DPB1 (11760878_x_at) / RFU SPINT1 (11716480_a_at) / Fold change /veh SPINT1 (11716480_a_at) / RFU GAP43 (11754022_s_at) / Fold change /veh GAP43 (11754022_s_at) / RFU A4GNT (11735810_at) / Fold change /veh A4GNT (11735810_at) / RFU PRB3 (11715151_x_at) / Fold change /veh PRB3 (11715151_x_at) / RFU TUBB4B (11761932_at) / Fold change /veh TUBB4B (11761932_at) / RFU CAPN14 (11732068_a_at) / Fold change /veh CAPN14 (11732068_a_at) / RFU TMCC2 (11721928_a_at) / Fold change /veh TMCC2 (11721928_a_at) / RFU IRGQ (11745062_a_at) / Fold change /veh IRGQ (11745062_a_at) / RFU FAM174B (11720279_a_at) / Fold change /veh FAM174B (11720279_a_at) / RFU TMPRSS4 (11748680_a_at) / Fold change /veh TMPRSS4 (11748680_a_at) / RFU FAM212B (11763350_a_at) / Fold change /veh FAM212B (11763350_a_at) / RFU PLEKHG5 (11743358_a_at) / Fold change /veh PLEKHG5 (11743358_a_at) / RFU ZSCAN30 (11745921_a_at) / Fold change /veh ZSCAN30 (11745921_a_at) / RFU CMKLR1 (11741424_a_at) / Fold change /veh CMKLR1 (11741424_a_at) / RFU LOC101060620 /// MAPK8IP1 (11723275_at) / Fold change /veh LOC101060620 /// MAPK8IP1 (11723275_at) / RFU SPTSSB (11747773_x_at) / Fold change /veh SPTSSB (11747773_x_at) / RFU PRSS12 (11739890_at) / Fold change /veh PRSS12 (11739890_at) / RFU BIN1 (11741810_x_at) / Fold change /veh BIN1 (11741810_x_at) / RFU WNT11 (11732464_a_at) / Fold change /veh WNT11 (11732464_a_at) / RFU C10orf10 (11716521_a_at) / Fold change /veh C10orf10 (11716521_a_at) / RFU C5orf56 (11738089_at) / Fold change /veh C5orf56 (11738089_at) / RFU CYB561 (11721691_x_at) / Fold change /veh CYB561 (11721691_x_at) / RFU ANKRD19P (11752326_a_at) / Fold change /veh ANKRD19P (11752326_a_at) / RFU OR2T12 /// OR2T33 /// OR2T8 (11738714_s_at) / Fold change /veh OR2T12 /// OR2T33 /// OR2T8 (11738714_s_at) / RFU VCAN (11748164_a_at) / Fold change /veh VCAN (11748164_a_at) / RFU JSRP1 (11732532_at) / Fold change /veh JSRP1 (11732532_at) / RFU KRTAP10-11 (11738290_x_at) / Fold change /veh KRTAP10-11 (11738290_x_at) / RFU MYO3A (11730013_a_at) / Fold change /veh MYO3A (11730013_a_at) / RFU EBF3 (11725865_a_at) / Fold change /veh EBF3 (11725865_a_at) / RFU CAMK2N1 (11719241_x_at) / Fold change /veh CAMK2N1 (11719241_x_at) / RFU C5orf56 (11738088_a_at) / Fold change /veh C5orf56 (11738088_a_at) / RFU OLFML3 (11715873_a_at) / Fold change /veh OLFML3 (11715873_a_at) / RFU LOC100653217 /// NTM (11731650_a_at) / Fold change /veh LOC100653217 /// NTM (11731650_a_at) / RFU MAPK11 (11762145_a_at) / Fold change /veh MAPK11 (11762145_a_at) / RFU FIZ1 (11724087_x_at) / Fold change /veh FIZ1 (11724087_x_at) / RFU OASL (11726364_x_at) / Fold change /veh OASL (11726364_x_at) / RFU SOX15 (11748057_x_at) / Fold change /veh SOX15 (11748057_x_at) / RFU CD79A (11719716_a_at) / Fold change /veh CD79A (11719716_a_at) / RFU HIST1H1D (11736915_at) / Fold change /veh HIST1H1D (11736915_at) / RFU CASKIN2 (11723855_a_at) / Fold change /veh CASKIN2 (11723855_a_at) / RFU LOC730098 (11760151_x_at) / Fold change /veh LOC730098 (11760151_x_at) / RFU OR4N2 (11742367_at) / Fold change /veh OR4N2 (11742367_at) / RFU PRRT2 (11749266_a_at) / Fold change /veh PRRT2 (11749266_a_at) / RFU SNX32 (11753110_a_at) / Fold change /veh SNX32 (11753110_a_at) / RFU CDHR5 (11726645_a_at) / Fold change /veh CDHR5 (11726645_a_at) / RFU RCAN1 (11760418_a_at) / Fold change /veh RCAN1 (11760418_a_at) / RFU FAM167A (11723789_a_at) / Fold change /veh FAM167A (11723789_a_at) / RFU FAM26E (11764081_at) / Fold change /veh FAM26E (11764081_at) / RFU ISYNA1 (11749810_s_at) / Fold change /veh ISYNA1 (11749810_s_at) / RFU ACY1 (11761880_at) / Fold change /veh ACY1 (11761880_at) / RFU 11764098_at / Fold change /veh 11764098_at / RFU SAMD14 (11745864_x_at) / Fold change /veh SAMD14 (11745864_x_at) / RFU NPB (11741838_a_at) / Fold change /veh NPB (11741838_a_at) / RFU TMPRSS6 (11731388_a_at) / Fold change /veh TMPRSS6 (11731388_a_at) / RFU KRTAP10-2 (11738614_at) / Fold change /veh KRTAP10-2 (11738614_at) / RFU ARHGAP8 /// PRR5-ARHGAP8 (11727945_x_at) / Fold change /veh ARHGAP8 /// PRR5-ARHGAP8 (11727945_x_at) / RFU KRTAP5-7 /// NADSYN1 (11734609_at) / Fold change /veh KRTAP5-7 /// NADSYN1 (11734609_at) / RFU RASL12 (11751679_a_at) / Fold change /veh RASL12 (11751679_a_at) / RFU CDKN2B (11736163_a_at) / Fold change /veh CDKN2B (11736163_a_at) / RFU PRF1 (11729649_at) / Fold change /veh PRF1 (11729649_at) / RFU, ZNF638 /// ZNF638-IT1 / Fold change vs veh, ZNF638 /// ZNF638-IT1 / RFU, PANK3 / Fold change vs veh, PANK3 / RFU, SH3YL1 / Fold change vs veh, SH3YL1 / RFU, ZEB2 / Fold change vs veh, ZEB2 / RFU, NRIP1 / Fold change vs veh, NRIP1 / RFU, PTTG1IP / Fold change vs veh, PTTG1IP / RFU, CAPN2 / Fold change vs veh, CAPN2 / RFU, MED14 / Fold change vs veh, MED14 / RFU, SNORA58 / Fold change vs veh, SNORA58 / RFU, C1orf63 / Fold change vs veh, C1orf63 / RFU, LRRFIP1 / Fold change vs veh, LRRFIP1 / RFU, NDUFAF7 / Fold change vs veh, NDUFAF7 / RFU, SLC12A2 / Fold change vs veh, SLC12A2 / RFU, IBTK / Fold change vs veh, IBTK / RFU, ESF1 / Fold change vs veh, ESF1 / Fold change vs veh, TMEM50B / RFU, TAOK1 / Fold change vs veh, TAOK1 / RFU, ACBD3 / Fold change vs veh, ACBD3 / RFU, TMA16 / Fold change vs veh, TMA16 / RFU, RWDD3 / Fold change vs veh, RWDD3 / RFU, BCAT1 / Fold change vs veh, BCAT1 / RFU, EDEM3 / Fold change vs veh, EDEM3 / RFU, TMEM33 / Fold change vs veh, TMEM33 / RFU, WDR75 / Fold change vs veh, WDR75 / RFU, AHCTF1 / Fold change vs veh, AHCTF1 / RFU, TFRC / Fold change vs veh, TFRC / RFU, ZDHHC17 / Fold change vs veh, ZDHHC17 / RFU, NOM1 / Fold change vs veh, NOM1 / RFU, ARL8B / Fold change vs veh, ARL8B / RFU, ZBTB11 / Fold change vs veh, ZBTB11 / RFU, TAMM41 / Fold change vs veh, TAMM41 / RFU, KIAA1704 /// LOC100996395 / Fold change vs veh, KIAA1704 /// LOC100996395 / RFU, ING1 / Fold change vs veh, ING1 / RFU, TRMT61B / Fold change vs veh, TRMT61B / RFU, FUBP3 / Fold change vs veh, FUBP3 / RFU, TP53 / Fold change vs veh, TP53 / RFU, TNKS2 / Fold change vs veh, TNKS2 / RFU, ZFP14 / Fold change vs veh, ZFP14 / RFU, ACTR2 / Fold change vs veh, ACTR2 / RFU, PPP3R1 / Fold change vs veh, PPP3R1 / RFU, PIK3R1 / Fold change vs veh, PIK3R1 / RFU, HNRNPA1 / Fold change vs veh, HNRNPA1 / RFU, RNF170 / Fold change vs veh, RNF170 / RFU, ZNF28 / Fold change vs veh, ZNF28 / RFU, RNGTT / Fold change vs veh, RNGTT / RFU, OGT / Fold change vs veh, OGT / RFU, BRD1 / Fold change vs veh, BRD1 / RFU, MARS / Fold change vs veh, MARS / RFU, ZNF655 / Fold change vs veh, ZNF655 / RFU, FAHD1 / Fold change vs veh, FAHD1 / RFU, BDP1 / Fold change vs veh, BDP1 / RFU, LRRCC1 / Fold change vs veh, LRRCC1 / RFU, ARID1A / Fold change vs veh, ARID1A / RFU, ZNF146 / Fold change vs veh, ZNF146 / RFU, ZNF330 / Fold change vs veh, ZNF330 / RFU, GPN3 / Fold change vs veh, GPN3 / RFU, C9orf123 / Fold change vs veh, C9orf123 / RFU, N4BP2L2 / Fold change vs veh, N4BP2L2 / RFU, ARFIP1 / Fold change vs veh, ARFIP1 / RFU, FAM179B / Fold change vs veh, FAM179B / RFU, BCL10 / Fold change vs veh, BCL10 / RFU, UHRF1BP1L / Fold change vs veh, UHRF1BP1L / RFU, BET1 / Fold change vs veh, BET1 / RFU, CNOT2 / Fold change vs veh, CNOT2 / RFU, ZNF268 / Fold change vs veh, ZNF268 / Fold change vs veh, ZNF507 / RFU, DGCR2 / Fold change vs veh, DGCR2 / RFU, WDSUB1 / Fold change vs veh, WDSUB1 / Fold change vs veh, HSP90B1 /// MIR3652 / RFU, ADSS / Fold change vs veh, ADSS / RFU, GK / Fold change vs veh, GK / RFU, ZNF148 / Fold change vs veh, ZNF148 / RFU, TAF9 / Fold change vs veh, TAF9 / RFU, SLC1A5 / Fold change vs veh, SLC1A5 / RFU, SLMO2 / Fold change vs veh, SLMO2 / RFU, ABCC4 / Fold change vs veh, ABCC4 / RFU, LOC101060439 /// RAP1B / Fold change vs veh, LOC101060439 /// RAP1B / RFU, RFX7 / Fold change vs veh, RFX7 / RFU, GTPBP10 / Fold change vs veh, GTPBP10 / RFU, CNEP1R1 / Fold change vs veh, CNEP1R1 / RFU, BIVM-ERCC5 /// ERCC5 / Fold change vs veh, BIVM-ERCC5 /// ERCC5 / RFU, ILF3 / Fold change vs veh, ILF3 / RFU 11762660_at / Fold change /veh 11762660_at / RFU VCAN (11757783_s_at) / Fold change /veh VCAN (11757783_s_at) / RFU DDX43 (11728927_at) / Fold change /veh DDX43 (11728927_at) / RFU KRT8 (11758188_x_at) / Fold change /veh KRT8 (11758188_x_at) / RFU NKD1 (11759106_at) / Fold change /veh NKD1 (11759106_at) / RFU SRD5A1 (11742802_a_at) / Fold change /veh SRD5A1 (11742802_a_at) / RFU TPSAB1 /// TPSB2 (11721975_s_at) / Fold change /veh TPSAB1 /// TPSB2 (11721975_s_at) / RFU GSTM3 (11746129_a_at) / Fold change /veh GSTM3 (11746129_a_at) / RFU IL23R (11737362_x_at) / Fold change /veh IL23R (11737362_x_at) / RFU TMEM51 (11727254_a_at) / Fold change /veh TMEM51 (11727254_a_at) / RFU PIWIL2 (11732686_x_at) / Fold change /veh PIWIL2 (11732686_x_at) / RFU ORM1 (11744905_x_at) / Fold change /veh ORM1 (11744905_x_at) / RFU CCDC152 (11743942_at) / Fold change /veh CCDC152 (11743942_at) / RFU ECM1 (11717891_a_at) / Fold change /veh ECM1 (11717891_a_at) / RFU IL23R (11748794_a_at) / Fold change /veh IL23R (11748794_a_at) / RFU TNFAIP8L3 (11732012_x_at) / Fold change /veh TNFAIP8L3 (11732012_x_at) / RFU MBOAT4 (11741988_at) / Fold change /veh MBOAT4 (11741988_at) / RFU 11764193_at / Fold change /veh 11764193_at / RFU TMEM53 (11763286_at) / Fold change /veh TMEM53 (11763286_at) / RFU MAGEB2 (11727129_at) / Fold change /veh MAGEB2 (11727129_at) / RFU TMEM200A (11744735_a_at) / Fold change /veh TMEM200A (11744735_a_at) / RFU CCDC152 (11751479_a_at) / Fold change /veh CCDC152 (11751479_a_at) / RFU FAM211A (11726209_a_at) / Fold change /veh FAM211A (11726209_a_at) / RFU RGS16 (11746705_a_at) / Fold change /veh RGS16 (11746705_a_at) / RFU VCAN (11755009_s_at) / Fold change /veh VCAN (11755009_s_at) / RFU RHOB (11743442_s_at) / Fold change /veh RHOB (11743442_s_at) / RFU RGS16 (11720943_a_at) / Fold change /veh RGS16 (11720943_a_at) / RFU RGS16 (11720944_at) / Fold change /veh RGS16 (11720944_at) / RFU, VPS4B / Fold change vs veh, VPS4B / RFU, CREB1 / Fold change vs veh, CREB1 / RFU, DNAJC13 / Fold change vs veh, DNAJC13 / RFU, GNAQ / Fold change vs veh, GNAQ / RFU, CDK5R1 / Fold change vs veh, CDK5R1 / RFU, ZRANB3 / Fold change vs veh, ZRANB3 / RFU, CUL4A / Fold change vs veh, CUL4A / RFU, CCNY / Fold change vs veh, CCNY / RFU, UFL1 / Fold change vs veh, UFL1 / RFU, COG3 / Fold change vs veh, COG3 / RFU, DIAPH2 / Fold change vs veh, DIAPH2 / RFU, SKA2 / Fold change vs veh, SKA2 / RFU, AFF3 / Fold change vs veh, AFF3 / RFU, LMF1 / Fold change vs veh, LMF1 / RFU, IPO11 / Fold change vs veh, IPO11 / RFU, DFFB / Fold change vs veh, DFFB / RFU, FOXP1 / Fold change vs veh, FOXP1 / RFU, CARD8 / Fold change vs veh, CARD8 / RFU, STRN3 / Fold change vs veh, STRN3 / RFU, ADK / Fold change vs veh, ADK / RFU, RASSF2 / Fold change vs veh, RASSF2 / RFU, WIPF1 / Fold change vs veh, WIPF1 / RFU, LARP1B / Fold change vs veh, LARP1B / RFU, RASA1 / Fold change vs veh, RASA1 / RFU, RB1 / Fold change vs veh, RB1 / RFU, PPFIA1 / Fold change vs veh, PPFIA1 / RFU, MAT2A / Fold change vs veh, MAT2A / RFU, CCT5 / Fold change vs veh, CCT5 / RFU, WDR92 / Fold change vs veh, WDR92 / RFU, CUX1 / Fold change vs veh, CUX1 / RFU, TTC7A / Fold change vs veh, TTC7A / RFU, TMEM135 / Fold change vs veh, TMEM135 / RFU, DEPTOR / Fold change vs veh, DEPTOR / RFU, CPM / Fold change vs veh, CPM / RFU, DNAJB6 / Fold change vs veh, DNAJB6 / RFU, CACNA2D3 / Fold change vs veh, CACNA2D3 / RFU, DTX4 / Fold change vs veh, DTX4 / RFU, TFCP2 / Fold change vs veh, TFCP2 / RFU, GMCL1 /// GMCL1P1 / Fold change vs veh, GMCL1 /// GMCL1P1 / RFU, AEBP2 / Fold change vs veh, AEBP2 / RFU, SNHG1 /// SNORD22 /// SNORD25 /// SNORD26 /// SNORD27 /// SNORD28 /// SNORD29 /// SNORD31 / Fold change vs veh, SNHG1 /// SNORD22 /// SNORD25 /// SNORD26 /// SNORD27 /// SNORD28 /// SNORD29 /// SNORD31 / Fold change (Aza/veh), C12orf56 (ProbeSet 11735607_a_at) / Fold change (ACY-1035/veh), C12orf56 (ProbeSet 11735607_a_at) / Fold change (Aza/veh), FGFR1OP (ProbeSet 11751329_s_at) / Fold change (ACY-1035/veh), FGFR1OP (ProbeSet 11751329_s_at) / Fold change (Aza/veh), VPS36 (ProbeSet 11739960_a_at) / Fold change (ACY-1035/veh), VPS36 (ProbeSet 11739960_a_at) / RFU SYPL1 (11715823_x_at) / Fold change /veh SYPL1 (11715823_x_at) / RFU IGFBP7 (11715501_s_at) / Fold change /veh IGFBP7 (11715501_s_at) / RFU REEP3 (11722064_at) / Fold change /veh REEP3 (11722064_at) / RFU IGLL1 (11728026_x_at) / Fold change /veh IGLL1 (11728026_x_at): dose or concentration left out as unconfirmed
Conditions: MV-4-11 cells, 48 hours

Nc1ccc(-c2cccs2)cc1NC(=O)c1ccc2c(c1)cc(C1CC1)n2CCN1CCOCC1 [ACY-1035]
Fold change /veh WNT11 (11732464_a_at): 1.11
